Values of other authors, collected in patent publication US20060205656A1 (priority 1999, published 2006).

Conditions: in vivo

Substance: contulakin-G
- potency in inhibiting pain relative to neurotensin: significantly more potent than neurotensin
